Reference: ChEMBL document CHEMBL1130926, “Novel H3 receptor antagonists. Sulfonamide homologs of histamine” (Bioorg Med Chem Lett, 1998)
Activity calls are given as the source filed them. The rule behind the calls is not given here.

Experiments:
Histamine H3 receptor [1] = biological target: T1, Histamine H3 receptor (Cavia porcellus, UniProt Q9JI35); assay: Inhibition of [3H]Nalpha-methylhistamine binding to H3 receptor in guinea-pig brain membranes; format: cell membranes, Membrane
Histamine H3 receptor [2] = biological target: T1, Histamine H3 receptor; assay: H3 -antagonist potency determined in electrically stimulated guinea-pig ileum; format: functional, tissue-based; settings: read-out: pA2 (converted)
[3] = biological target: Histamine H3 receptor (Cavia porcellus) (UniProt Q9JI35); assay: Evaluated in vivo for its H3 receptor antagonist activity in the CNS hypertension model at 3 mg/kg dose; format: functional, organism-based; set-up: dose 3 mg/kg
Histamine H1 receptor = Histamine H1 receptor (Cavia porcellus, UniProt P31389); assay: Evaluated for the percent binding affinity against H1 receptor by an H1 histamine-mediated bronchospasm; set-up: concentration or dose not given beside the values
[4] = biological target: Histamine H3 receptor (Cavia porcellus) (UniProt Q9JI35); assay: Evaluated in vivo for its H3 receptor antagonist activity in the CNS hypertension model; format: functional, organism-based
Cavia porcellus = assay: Compound was evaluated in vivo for its H3 receptor antagonist activity in the CNS hypertension model; NA: Not active; format: functional, organism-based

T1 sequence (Q9JI35 whole entry): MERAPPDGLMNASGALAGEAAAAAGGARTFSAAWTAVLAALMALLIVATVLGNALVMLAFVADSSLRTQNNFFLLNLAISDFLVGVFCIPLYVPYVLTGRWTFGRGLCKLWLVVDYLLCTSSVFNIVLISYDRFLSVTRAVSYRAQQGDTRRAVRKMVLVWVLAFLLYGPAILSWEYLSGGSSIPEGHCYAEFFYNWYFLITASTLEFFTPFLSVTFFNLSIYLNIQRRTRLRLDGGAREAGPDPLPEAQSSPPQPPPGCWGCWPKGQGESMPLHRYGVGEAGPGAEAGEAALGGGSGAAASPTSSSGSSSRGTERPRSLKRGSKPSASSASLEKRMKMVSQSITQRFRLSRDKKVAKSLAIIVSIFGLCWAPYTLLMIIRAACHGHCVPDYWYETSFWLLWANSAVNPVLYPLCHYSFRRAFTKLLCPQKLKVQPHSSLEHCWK
Histamine H3 receptor (Cavia porcellus), sequence (Q9JI35 whole entry): as above
Histamine H1 receptor, sequence (P31389 whole entry): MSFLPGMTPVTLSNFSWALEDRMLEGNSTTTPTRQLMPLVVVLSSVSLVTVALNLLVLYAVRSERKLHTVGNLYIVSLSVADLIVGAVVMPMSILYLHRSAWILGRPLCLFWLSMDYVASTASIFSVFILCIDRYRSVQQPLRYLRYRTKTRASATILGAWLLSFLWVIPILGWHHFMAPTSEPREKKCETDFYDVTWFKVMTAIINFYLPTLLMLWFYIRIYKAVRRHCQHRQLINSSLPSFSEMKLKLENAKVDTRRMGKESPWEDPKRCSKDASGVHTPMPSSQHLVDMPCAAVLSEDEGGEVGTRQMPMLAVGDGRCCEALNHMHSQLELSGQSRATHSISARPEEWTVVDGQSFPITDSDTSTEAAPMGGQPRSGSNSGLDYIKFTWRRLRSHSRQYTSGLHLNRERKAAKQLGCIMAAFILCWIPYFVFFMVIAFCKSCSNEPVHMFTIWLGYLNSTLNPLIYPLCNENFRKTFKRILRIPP

Row | Compound | Ki (Histamine H3 receptor [1]) [nM] | Kb (Histamine H3 receptor [2]) [nM] | inhibition [3] [%] | inhibition (Histamine H1 receptor) [%] | ED50 [4] [mg/kg] | ED50 (Cavia porcellus)
1 | O=S(=O)(NCCCc1cnc[nH]1)c1cccs1 | 550 | – | – | – | – | –
2 | CN(CCCCc1c[nH]cn1)S(=O)(=O)c1ccc(Cl)cc1 | 4 | 5.01 | 43 | 32 | – | –
3 | O=S(=O)(NCCCCc1c[nH]cn1)c1ccc(Cl)cc1 | – | – | – | 48 | 2.2 | –
4 | O=[N+]([O-])c1ccc(S(=O)(=O)NCCCCc2cnc[nH]2)cc1 | 16.5 | 20 | – | – | – | –
5 | O=S(=O)(NCCCCc1cnc[nH]1)c1ccc(Cl)cc1 | 9 | 12.6 | – | – | – | –
6 | O=S(=O)(NCCCCc1c[nH]cn1)c1ccc(C(F)(F)F)cc1 | 10 | 3.98 | – | 1 | 3 | –
7 | O=S(=O)(Cc1ccccc1)NCCCCc1c[nH]cn1 | 6 | 31.6 | 17 | 3 | – | –
8 | O=S(=O)(NCCCCc1cnc[nH]1)c1ccccc1 | 10.5 | 31.6 | – | – | – | –
9 | O=[N+]([O-])c1ccc(S(=O)(=O)NCCCCc2c[nH]cn2)cc1 | – | – | – | 24 | – | inactive
10 | O=S(=O)(NCCCCCc1c[nH]cn1)c1ccccc1 | 24.5 | 63.1 | – | 19 | – | –
11 | O=[N+]([O-])c1ccc(S(=O)(=O)NCCCCCc2c[nH]cn2)cc1 | 5.5 | 7.94 | – | 25 | 2.7 | –
12 | CC(C)(C)c1ccc(S(=O)(=O)NCCCc2c[nH]cn2)cc1 | 45.5 | – | – | 30 | – | –
13 | CC(C)S(=O)(=O)NCCCCc1cnc[nH]1 | 22 | 63.1 | – | – | – | –
14 | Cn1cc[n+](S(=O)(=O)NCCCCc2c[nH]cn2)c1 | 43 | – | – | – | – | –
15 | Nc1ccc(S(=O)(=O)NCCCCc2c[nH]cn2)cc1 | 99 | – | – | – | – | –
16 | O=S(=O)(NCCCCc1c[nH]cn1)c1ccccc1 | – | – | – | 5 | – | inactive
17 | Cc1ccc(S(=O)(=O)NCCCCc2c[nH]cn2)cc1 | – | – | 16 | – | – | –

Row | Compound | Ki (Histamine H3 receptor [1]) [nM] | Kb (Histamine H3 receptor [2]) [nM] | inhibition [3] [%] | inhibition (Histamine H1 receptor) [%] | ED50 [4] [mg/kg] | ED50 (Cavia porcellus)
18 | O=[N+]([O-])c1ccccc1CS(=O)(=O)NCCCCc1cnc[nH]1 | 42 | – | – | – | – | –
19 | O=S(=O)(NCCCCCc1cnc[nH]1)c1ccc(Cl)cc1 | 11.5 | 100 | – | – | – | –
20 | COc1ccc(S(=O)(=O)NCCCCc2cnc[nH]2)cc1 | 51 | – | – | – | – | –
21 | O=S(=O)(NCCCCc1cnc[nH]1)c1cccs1 | 45 | – | – | – | – | –
22 | Cc1ccc(S(=O)(=O)NCCCCc2cnc[nH]2)cc1 | 17 | 25.1 | – | – | – | –
23 | CC(C)(C)c1ccc(S(=O)(=O)NCCCCCc2c[nH]cn2)cc1 | 5 | 10 | 40 | 14 | – | –
24 | O=S(=O)(NCCCCc1c[nH]cn1)c1ccc(OC(F)(F)F)cc1 | 7 | 10 | – | – | – | inactive
25 | O=S(=O)(c1ccc(Cl)cc1)N(CCCCc1c[nH]cn1)Cc1ccc(Cl)cc1 | 24 | 15.8 | – | 45 | 3 | –
26 | O=S(=O)(NCCCCCc1c[nH]cn1)c1ccc(Cl)cc1 | – | – | – | 37 | 3 | –
27 | O=S(=O)(NCCCCc1c[nH]cn1)c1cccc(Cl)c1 | 8.5 | 50.1 | 8 | – | – | –
28 | O=S(=O)(c1ccc(Cl)cc1)N(CCCCc1c[nH]cn1)CCCCn1ccnc1 | 2.5 | 7.94 | – | – | – | –
29 | O=S(=O)(NCCCc1c[nH]cn1)c1ccc(Cl)cc1 | 380 | – | – | 21 | – | –
30 | O=S(=O)(NCCCCc1c[nH]cn1)c1ccc(F)cc1 | 20.5 | 158 | – | 19 | – | –
31 | CC(C)(C)c1ccc(S(=O)(=O)NCCCCc2c[nH]cn2)cc1 | 16.5 | 15.8 | – | 32 | 3 | –
32 | O=S(=O)(NCCCCCc1c[nH]cn1)c1ccc(OC(F)(F)F)cc1 | 24.3 | 10 | – | 1 | – | –
33 | O=[N+]([O-])c1ccc(S(=O)(=O)NCCCc2c[nH]cn2)cc1 | 93 | – | – | 36 | – | –
